Measurements from patent US5393883A, “Antiviral combinations and compounds therefor” (Burroughs Wellcome Co., priority 1988, dated 1995).
Read-outs that look alike come from different tables or passages of the source.

System: HSV-2
Experiment: dye uptake method: prevention of HSV-2 cytopathic effect in Vero cells, acyclovir with ribonucleotide reductase inhibitor (Compound A)
Format: cell-based
Method: The ribonucleotide reductase inhibitors of the present invention were shown by use of the dye uptake method described by McLaren, Ellis and Hunter in Antivir. Res. 3, 223-234 (1983) to potentiate the in vitro antiviral effects of acyclovir. Vero cells (20,000 cells/well) were incubated in microtiter wells for 24 hours. Various concentrations of acyclovir and the ribonucleotide reductase inhibitors were added and the cells were infected with 30 infectious particles/well of HSV-1 or HSV-2. After 3 days incubation, the antiviral effects were assessed by determining the prevention of the cytopathic effects of the viruses. Examples of the synergistic antiherpes activity of 2-acetylpyridine (4,5-dihydro-5-thioxo-1,3,4-thiadiazol-2-yl)-hydrazone (Compound A) and acyclovir (ACV) are given below.

| Compound | IC50 Calculated (theoretical value for the additive combined effects of ACV and Compound A) (ACV alone) | IC50 (Human alphaherpesvirus 2, Vero, 72 h, read-out: IC50 Observed (concentration of ACV required to inhibit HSC2 replication by 50%)) | inhibition at 0.4 µM (Human alphaherpesvirus 2, Vero, 0.4 μM Compound A alone, read-out: % inhibition of virus replication by Compound A alone) | inhibition at 0.9 µM (Human alphaherpesvirus 2, Vero, 0.9 μM Compound A alone, read-out: % inhibition of virus replication by Compound A alone) | inhibition at 1.3 µM (Human alphaherpesvirus 2, Vero, 1.3 μM Compound A alone, read-out: % inhibition of virus replication by Compound A alone) | IC50 (Human alphaherpesvirus 2, Vero, read-out: IC50 of Compound A alone (inhibition of virus replication)) |
| --- | --- | --- | --- | --- | --- | --- |
| Nc1nc2c(ncn2COCCO)c(=O)[nH]1 [ACV, 9-(2-hydroxyethoxymethyl)guanine, reference compound] | 5.7 µM | 5.77 µM |  |  |  |  |
| CC(=NNc1n[nH]c(=S)s1)c1ccccn1 [Compound A, 2-acetylpyridine (4,5-dihydro-5-thioxo-1,3,4-thiadiazol-2-yl)-hydrazone] |  |  | 0% | 0% | 21% | 1.6 µM |
